Converted amounts (≈) assume the structure as drawn. Read-outs that look alike come from different tables or passages of the source.
Experiments:
[1] = test system: α-amylase enzyme (diastase); assay: Antidiabetic activity: α-amylase inhibitory activity using diastase, colorimetric method; format: biochemical; settings: for IC50 (antidiabetic activity, α-amylase): calculated via graph of % inhibition
Procedure: All the synthesized compounds were evaluated against α-amylase inhibitory activity by using diastase based on colorimetric method. 0.25 g of soluble potato starch was dissolved in 50 ml of 20 mM phosphate buffer by heating for 15 min. 1 mg diastase (amylase enzyme) was mixed in 100 ml of 20 mM phosphate buffer (pH 6.9) to obtain the enzyme solution. Different concentrations of all the synthesized derivatives were prepared by dissolving them in DMSO. […] 1 ml of enzyme solution was mixed with 1 ml of each synthesized derivatives and incubated for 10 min at 25 °C. Then 1 ml of this mixture was mixed with 1 ml of soluble potato starch solution in a tube and incubated for 10 min at 25 °C. Then tubes were closed after adding 1 ml of color reagent and placed into water bath for 15 min at 85 °C. The reaction mixture was removed from water bath after 15 min. After cooling, the reaction mixture was diluted with 9 ml of distilled water and the absorbance was taken at 540 nm in UV spectrophotometer. Blank solution was prepared by replacing the enzyme solution with buffer solution and absorbance was taken. Measurement of control was performed in identical manner by replacing the synthesized derivatives in 1 ml of DMSO.
Percentage inhibition of α-amylase enzyme was calculated by using following formula:1 %Inhibition=ABlank-ASample/ABlank×100

[2] = Antioxidant activity: free radical scavenging method by DPPH assay; settings: for % inhibition (DPPH), 25 μg/ml / % inhibition (DPPH), 50 μg/ml / % inhibition (DPPH), 75 μg/ml / % inhibition (DPPH), 100 μg/ml: 30 min, 517 nm; for IC50 (antioxidant activity, DPPH): calculated via graph of % inhibition
Procedure: The antioxidant activity of the newly synthesized compounds were evaluated spectrophotometrically using free radical scavenging method by DPPH (2,2-diphenyl-1-picrylhydrazyl) assay. The DPPH is a stable free radical with maximal absorption at 517 nm and is reduced to a corresponding hydrazine when it reacting with hydrogen donors. […] DPPH solution (3 μg/ml) was prepared in methanol and DPPH (in 1:1) solution was used for blank reference. Four dilutions of different concentrations (25, 50, 75 and 100 μg/ml) of each synthesized compound and standard (ascorbic acid) were prepared in the methanol and 1 ml of each concentration was added to 1 ml of DPPH solution. The solution mixture was shaken vigorously and kept in dark place for 30 min at room temperature and absorbance was measured by UV at 517 nm. Percentage inhibition of Free radical DPPH was calculated as follows:1 %Inhibition=ABlank-ASample/ABlank×100 where, ABlank: absorbance of the blank reaction, ASample: absorbance of the test compound.

Aspergillus niger = assay: Antifungal activity, tube dilution method (MIC); format: cell-based; settings: 168 h
Procedure: (§1) The in vitro antimicrobial activity of synthesized compounds was done by tube dilution method against Gram-positive bacteria: Staphylococcus aureus, Bacillus subtilis, Gram-negative bacteria: Escherichia coli, Klebsiella pneumonia, Salmonella typhi and fungal: Candida albicans and Aspergillus niger strains using cefadroxil and fluconazole as standard. Dilutions of test and standard compounds were prepared in double strength nutrient broth for bacterial strains and Sabouraud dextrose broth for fungal strains.

Candida albicans = assay: Antifungal activity, tube dilution method (MIC); format: cell-based; settings: 48 h
Procedure: as §1

Bacillus subtilis = assay: Antimicrobial activity, tube dilution method (MIC); format: cell-based; settings: 24 h
Procedure: as §1

Klebsiella pneumonia = assay: Antimicrobial activity, tube dilution method (MIC); format: cell-based; settings: Klebsiella pneumoniae, 24 h
Procedure: as §1

Escherichia coli = assay: Antimicrobial activity, tube dilution method (MIC); format: cell-based; settings: 24 h, read-out: Minimum inhibitory concentration, E. coli, tube dilution, 37 ± 1 °C, 24 h
Procedure: as §1

Salmonella typhi = assay: Antimicrobial activity, tube dilution method (MIC); format: cell-based; settings: Salmonella enterica, TYPHI, 24 h, read-out: Minimum inhibitory concentration, S. typhi
Procedure: as §1

Staphylococcus aureus = assay: Antimicrobial activity, tube dilution method (MIC); format: cell-based; settings: 24 h, read-out: Minimum inhibitory concentration, S. aureus, tube dilution, 37 ± 1 °C, 24 h
Procedure: as §1

[3] = read-out: Minimum inhibitory concentration, A. niger, tube dilution, 25 ± 1 °C, 7 days
[4] = read-out: Minimum inhibitory concentration, C. albicans, tube dilution, 37 ± 1 °C, 48 h
[5] = read-out: Minimum inhibitory concentration, B. subtilis, tube dilution, 37 ± 1 °C, 24 h
[6] = read-out: Minimum inhibitory concentration, K. pneumonia, tube dilution, 37 ± 1 °C, 24 h

| Compound | % inhibition (α-amylase), 25 μg/ml [1] [%] | % inhibition (α-amylase), 50 μg/ml [1] [%] | % inhibition (α-amylase), 75 μg/ml [1] [%] | % inhibition (α-amylase), 100 μg/ml [1] [%] | IC50 (antidiabetic activity, α-amylase) [1] [µg/mL] | % inhibition (DPPH), 25 μg/ml [2] [%] | % inhibition (DPPH), 50 μg/ml [2] [%] | % inhibition (DPPH), 75 μg/ml [2] [%] | % inhibition (DPPH), 100 μg/ml [2] [%] | IC50 (antioxidant activity, DPPH) [2] [µg/mL] | MIC (Aspergillus niger; [3]) [mM] | MIC (Candida albicans; [4]) [mM] | MIC (Bacillus subtilis; [5]) [mM] | MIC (Klebsiella pneumonia; [6]) [mM] | MIC (Escherichia coli) [mM] | MIC (Salmonella typhi) [mM] | MIC (Staphylococcus aureus) [mM] | further results |
| --- | --- | --- | --- | --- | --- | --- | --- | --- | --- | --- | --- | --- | --- | --- | --- | --- | --- | --- |
| COc1ccc(C=C2SC(=O)NC2=O)cc1OC [Compound 19, 5-(3,4-Dimethoxybenzylidene)thiazolidine-2,4-dione] | 29.33 | 47.77 | 58.34 | 90.86 | 40.01 (≈ 151 µM) | 28.64 | 39.67 | 73.41 | 90.05 | 46.03 (≈ 174 µM) | 4.7 (≈ 1250 µg/mL) | 4.7 (≈ 1250 µg/mL) | 4.7 (≈ 1250 µg/mL) | 9.4 (≈ 2490 µg/mL) | 4.7 (≈ 1250 µg/mL) | 4.7 (≈ 1250 µg/mL) | 4.7 (≈ 1250 µg/mL) |  |
| C[C@H]1O[C@H](O[C@H]2[C@H](O)[C@@H](O)[C@@H](O[C@H]3[C@H](O)[C@@H](O)C(O)O[C@@H]3CO)O[C@@H]2CO)[C@H](O)[C@@H](O)[C@@H]1N[C@H]1C=C(CO)[C@@H](O)[C@H](O)[C@H]1O (stereo partly drawn) [Acarabose, Acarbose, reference compound] | 37.35 | 53.45 | 73.25 | 88.57 |  |  |  |  |  |  |  |  |  |  |  |  |  |  |
| CC1=C(C(=O)O)N2C(=O)[C@@H](NC(=O)[C@H](N)c3ccc(O)cc3)[C@H]2SC1 [Cefadroxil, cefadroxil, reference compound] |  |  |  |  |  |  |  |  |  |  |  |  |  |  | 1.71 (≈ 621 µg/mL) | 1.71 (≈ 621 µg/mL) | 1.71 (≈ 621 µg/mL) | MIC (Bacillus subtilis; tube dilution, 37 ± 1 °C, read-out: Minimum inhibitory concentration, B. subtilis): 3.4 mM (≈ 1240 µg/mL); MIC (Klebsiella pneumonia; tube dilution, 37 ± 1 °C, read-out: Minimum inhibitory concentration, K. pneumonia): 3.4 mM (≈ 1240 µg/mL) |
| O=C1NC(=O)C(=Cc2ccc(Cl)cc2Cl)S1 [Compound 3, 5-(2,4-Dichlorobenzylidene)thiazolidine-2,4-dione] | 29.45 | 47.98 | 60.83 | 95.79 | 43.45 (≈ 159 µM) | 35.89 | 42.67 | 70.25 | 85.44 | 29.04 (≈ 106 µM) | 4.5 (≈ 1230 µg/mL) | 4.5 (≈ 1230 µg/mL) | 4.5 (≈ 1230 µg/mL) | 9.12 (≈ 2500 µg/mL) | 9.12 (≈ 2500 µg/mL) | 4.5 (≈ 1230 µg/mL) | 4.5 (≈ 1230 µg/mL) |  |
| OC(Cn1cncn1)(Cn1cncn1)c1ccc(F)cc1F [Fluconazole, fluconazole, reference compound] |  |  |  |  |  |  |  |  |  |  |  |  |  |  |  |  |  | MIC (Aspergillus niger; tube dilution, 25 ± 1 °C, 7 days, read-out: Minimum inhibitory concentration, A. niger): 4.08 mM (≈ 1250 µg/mL); MIC (Candida albicans; tube dilution, 37 ± 1 °C, read-out: Minimum inhibitory concentration, C. albicans): 4.08 mM (≈ 1250 µg/mL) |
| O=C1NC(=O)C(=Cc2ccccc2[N+](=O)[O-])S1 [Compound 4, 5-(2-Nitrobenzylidene)thiazolidine-2,4-dione] | 31.26 | 40.65 | 63.93 | 92.61 | 43.63 (≈ 174 µM) | 29.45 | 45.75 | 79.74 | 83.10 | 36.17 (≈ 145 µM) | 4.99 (≈ 1250 µg/mL) | 4.99 (≈ 1250 µg/mL) | 9.9 (≈ 2480 µg/mL) | 9.9 (≈ 2480 µg/mL) |  | 4.99 (≈ 1250 µg/mL) | 4.99 (≈ 1250 µg/mL) |  |
| O=C1O[C@H]([C@@H](O)CO)C(O)=C1O [Ascorbic acid, ascorbic acid, reference compound] |  |  |  |  |  | 38.99 | 55.78 | 72.51 | 93.15 | 21.64 (≈ 123 µM) |  |  |  |  |  |  |  |  |
| O=C1NC(=O)C(=Cc2ccccc2Cl)S1 [Compound 13, 5-(2-Chlorobenzylidene)thiazolidine-2,4-dione] | 25.74 | 43.89 | 56.76 | 92.72 | 48.45 (≈ 202 µM) | 24.45 | 44.76 | 71.51 | 77.84 | 39.41 (≈ 164 µM) | 2.6 (≈ 623 µg/mL) | 5.21 (≈ 1250 µg/mL) | 10.4 (≈ 2490 µg/mL) | 10.4 (≈ 2490 µg/mL) | 5.21 (≈ 1250 µg/mL) | 5.21 (≈ 1250 µg/mL) | 5.21 (≈ 1250 µg/mL) |  |
| CCOc1cc(C=C2SC(=O)NC2=O)ccc1O [Compound 11, 5-(4-Hydroxy-3-ethoxybenzylidene)thiazolidine-2,4-dione] | 18.49 | 47.87 | 59.74 | 89.71 | 52.69 (≈ 199 µM) | 18.64 | 25.71 | 72.78 | 93.59 | 64.03 (≈ 241 µM) | 4.7 (≈ 1250 µg/mL) | 4.7 (≈ 1250 µg/mL) | 9.4 (≈ 2490 µg/mL) | 4.7 (≈ 1250 µg/mL) | 4.7 (≈ 1250 µg/mL) | 4.7 (≈ 1250 µg/mL) | 4.7 (≈ 1250 µg/mL) |  |
| COc1cc(C=C2SC(=O)NC2=O)ccc1O [Compound 18, 5-(4-Hydroxy-3-methoxybenzylidene)thiazolidine-2,4-dione] | 18.64 | 45.85 | 65.11 | 95.98 | 56.39 (≈ 224 µM) | 36.94 | 43.52 | 60.12 | 93.03 | 33.51 (≈ 133 µM) | 4.9 (≈ 1230 µg/mL) | 4.9 (≈ 1230 µg/mL) | 4.9 (≈ 1230 µg/mL) | 9.9 (≈ 2490 µg/mL) | 4.9 (≈ 1230 µg/mL) | 4.9 (≈ 1230 µg/mL) | 4.9 (≈ 1230 µg/mL) |  |
